From ChEMBL document CHEMBL6109134, “Discovery of AMG 193, an MTA-Cooperative PRMT5 Inhibitor for the Treatment of MTAP-Deleted Cancers” (J Med Chem, 2025)

Assays:
[1] = Metabolic stability in mouse liver microsomes assessed as intrinsic clearance at 0.5 uM incubated for 40 mins in presence of NADPH; type: ADME, Microsome; conditions: read-out: CLH
[2] = Metabolic stability in human liver microsomes assessed as intrinsic clearance at 0.5 uM incubated for 40 mins in presence of NADPH; type: ADME, Microsome; conditions: read-out: CLH
in vivo = conditions: CD-1, mouse, iv, 1 mg/kg
[3] = Clearance in CD-1 mouse at 1 mg/kg, iv; conditions: in vivo
PRMT5/MEP50 complex = PRMT5/MEP50 complex (Homo sapiens, UniProt O14744)
Description: Inhibition of PRMT5/MEP50 (unknown origin) preincubated with compound for 24 hrs in presence of SAM and MTA followed by Histone H4 (1-21)-Lys(Biotin) peptide addition and measured after 2 hrs by MTase-Glo reagent based assay

HCT-116 [4] = assay: Antiproliferative activity against MTAP-deleted human HCT-116 cells assessed as effect on cell viability incubated for 6 days by Celltiter-Glo luminescent cell viability assay; type: functional, cell-based; conditions: HCT-116, 144 h
HCT-116 [5] = assay: Antiproliferative activity against human HCT-116 cells harboring wildtype MTAP assessed as effect on cell viability incubated for 6 days by Celltiter-Glo luminescent cell viability assay; type: functional, cell-based; conditions: HCT-116, 144 h
human MDR1 (P-gp) = assay: Efflux ratio of permeability across basolateral to apical side over apical to basolateral side in MDCK cells transfected with human MDR1 in absence of elacridar; conditions: dog
[6] = Oral bioavailability in CD-1 mouse at 5 mg/kg administered as 1% Tween 80, 2% HPMC, 97% water/methane sulfonic acid, pH 2.0 formulation; type: ADME, organism-based; conditions: in vivo
[7] = Protein binding in mouse plasma assessed as unbound fraction by ultracentrifugation; conditions: mouse plasma
[8] = Unbound clearance in CD-1 mouse at 1 mg/kg, iv; type: ADME, organism-based; conditions: in vivo
[9] = molecular target: T1, Nuclear receptor subfamily 1 group I member 2 (Homo sapiens, UniProt O75469); assay: Activation of human PXR in human HepG2 cells co-transfected with CYP3A4-luciferase at 10 uM incubated for 1 day relative to control; conditions: hepg2, 24 h
T1 sequence (O75469 whole entry): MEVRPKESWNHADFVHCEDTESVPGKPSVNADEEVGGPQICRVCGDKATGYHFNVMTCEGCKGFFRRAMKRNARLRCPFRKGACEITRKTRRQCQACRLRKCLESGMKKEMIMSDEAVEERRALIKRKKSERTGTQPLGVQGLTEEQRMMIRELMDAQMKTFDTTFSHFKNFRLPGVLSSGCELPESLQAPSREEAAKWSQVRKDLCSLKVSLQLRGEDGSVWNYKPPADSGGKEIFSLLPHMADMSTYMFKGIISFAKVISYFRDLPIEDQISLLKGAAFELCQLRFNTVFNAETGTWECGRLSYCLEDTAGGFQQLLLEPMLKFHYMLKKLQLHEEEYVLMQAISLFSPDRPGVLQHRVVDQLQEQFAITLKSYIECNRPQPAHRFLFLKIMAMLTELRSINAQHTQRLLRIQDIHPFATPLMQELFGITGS

CYP3A4 = CYP3A4 (Homo sapiens, UniProt P08684); assay: in vitro; conditions: human liver microsomes, probe midazolam
[10] = Half-life in CD-1 mouse at 1 mg/kg, iv; type: ADME, organism-based; conditions: in vivo

Chain of CYP3A4 (P08684 whole entry): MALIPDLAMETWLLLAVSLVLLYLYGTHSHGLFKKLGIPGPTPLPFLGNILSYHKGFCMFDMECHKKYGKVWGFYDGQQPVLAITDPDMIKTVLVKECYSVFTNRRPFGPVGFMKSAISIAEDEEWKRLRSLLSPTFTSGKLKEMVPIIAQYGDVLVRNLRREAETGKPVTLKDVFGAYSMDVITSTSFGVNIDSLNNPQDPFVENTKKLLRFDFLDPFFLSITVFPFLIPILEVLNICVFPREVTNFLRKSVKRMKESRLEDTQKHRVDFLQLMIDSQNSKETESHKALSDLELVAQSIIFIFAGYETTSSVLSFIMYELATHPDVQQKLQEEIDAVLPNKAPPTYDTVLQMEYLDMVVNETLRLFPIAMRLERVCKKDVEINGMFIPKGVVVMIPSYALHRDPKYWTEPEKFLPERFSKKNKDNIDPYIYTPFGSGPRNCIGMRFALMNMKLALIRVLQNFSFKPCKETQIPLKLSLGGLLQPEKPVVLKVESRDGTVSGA
Chain of PRMT5/MEP50 complex (O14744 whole entry): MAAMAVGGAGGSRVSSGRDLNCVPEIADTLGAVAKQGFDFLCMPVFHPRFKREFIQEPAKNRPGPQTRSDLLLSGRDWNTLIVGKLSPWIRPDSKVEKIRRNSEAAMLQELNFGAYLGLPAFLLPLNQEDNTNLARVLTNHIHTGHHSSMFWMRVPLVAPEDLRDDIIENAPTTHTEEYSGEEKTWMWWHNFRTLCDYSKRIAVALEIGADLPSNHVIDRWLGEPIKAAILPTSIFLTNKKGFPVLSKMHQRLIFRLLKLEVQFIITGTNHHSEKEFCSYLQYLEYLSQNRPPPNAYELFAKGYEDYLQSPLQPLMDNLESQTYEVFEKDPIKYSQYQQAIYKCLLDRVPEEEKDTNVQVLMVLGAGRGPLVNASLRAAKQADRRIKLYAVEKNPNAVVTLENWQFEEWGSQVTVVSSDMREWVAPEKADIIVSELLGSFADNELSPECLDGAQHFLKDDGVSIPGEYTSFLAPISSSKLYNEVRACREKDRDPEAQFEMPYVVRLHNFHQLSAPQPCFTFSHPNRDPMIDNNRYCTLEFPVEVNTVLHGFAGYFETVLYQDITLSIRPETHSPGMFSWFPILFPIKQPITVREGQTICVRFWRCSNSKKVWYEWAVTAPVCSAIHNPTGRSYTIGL
Chain of PRMT5/MEP50 complex (Q9BQA1 whole entry, further chain): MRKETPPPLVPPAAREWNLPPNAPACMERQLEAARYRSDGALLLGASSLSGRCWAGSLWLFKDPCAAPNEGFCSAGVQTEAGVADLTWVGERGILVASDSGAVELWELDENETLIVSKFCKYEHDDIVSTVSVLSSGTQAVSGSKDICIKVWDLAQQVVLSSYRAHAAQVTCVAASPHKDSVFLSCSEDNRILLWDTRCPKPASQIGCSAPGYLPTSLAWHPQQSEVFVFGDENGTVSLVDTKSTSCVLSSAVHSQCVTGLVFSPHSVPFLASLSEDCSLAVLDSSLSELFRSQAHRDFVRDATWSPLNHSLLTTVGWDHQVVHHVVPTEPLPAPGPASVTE

Row | microsomal CLint at 0.5 µM [1] | microsomal CLint at 0.5 µM [2] | Vd (in vivo) | clearance [3] | Ki (PRMT5/MEP50 complex) | IC50 (HCT-116 [4]) | IC50 (HCT-116 [5]) | efflux ratio (human MDR1 (P-gp)) | bioavailability [6] | fraction unbound [7] | CL free [8] | Activity [9] | inhibition at 30 min, 10 µM (CYP3A4) | half-life [10] | SMILES
1 | 178 µL/min/mg | 43 µL/min/mg | 3 L/kg | 18.3 mL/min/kg | < 0.1 nM | 7 nM | 264 nM | 5 | 51% | 0.08 | 233 mL/min/kg | < 20% | < 20% | 2.6 h | C[C@@H]1COC[C@H](c2ccc(C(F)(F)F)cc2)N1C(=O)c1cc2c3c(c(N)nc2cn1)COC3
2 | 52 µL/min/mg | 61 µL/min/mg |  |  | 182 nM | 15500 nM | > 50000 nM |  |  |  |  | < 20% | < 20% |  | Nc1nc2ccc(C(=O)N3CCOC[C@H]3c3ccc(C(F)(F)F)cn3)cc2c2c1COC2
3 | 14 µL/min/mg | 14 µL/min/mg |  |  | 0.1 nM | 273 nM | 3490 nM | 63 |  |  |  | 6% | 70% |  | Cc1cc2cc(C(=O)N(Cc3ccc(C(F)(F)F)cn3)[C@H](C)c3ncccn3)cnc2nc1N
4 | 87 µL/min/mg | 50 µL/min/mg |  |  | 0.4 nM | 1090 nM | 16100 nM | 5 |  |  |  | < 20% | < 20% |  | Nc1nc2cnc(C(=O)N3CCC(F)(F)C[C@@H]3c3ccc(C(F)(F)F)cc3)cc2c2c1COC2
5 | 102 µL/min/mg | 74 µL/min/mg |  |  | < 0.1 nM | 112 nM | 2090 nM | 4 |  |  |  | < 20% | < 20% |  | Nc1nc2cnc(C(=O)N3CCCC[C@@H]3c3ccc(C(F)(F)F)cc3)cc2c2c1COC2
6 | 105 µL/min/mg | < 14 µL/min/mg |  |  | 0.2 nM | 344 nM | 5110 nM | 9 |  |  |  | 46% | 25% |  | C[C@H](c1ncccn1)N(Cc1ccc(C(F)(F)F)cn1)C(=O)c1ccc2nc(N)c(Cl)cc2c1
7 | 624 µL/min/mg | 262 µL/min/mg |  |  | < 0.1 nM | 10 nM | 26 nM | 31 |  |  |  | 50% | ≤ 10% |  | C[C@H](c1ncccn1)N(Cc1ccc(C(F)(F)F)cn1)C(=O)c1cc2c3c(c(N)nc2cc1F)COC3
8 | 45 µL/min/mg | 37 µL/min/mg |  |  | 0.1 nM | 809 nM | 14300 nM |  |  |  |  | < 20% | < 20% |  | Nc1nc2ccc(C(=O)N3CCOCC3c3ccc(C(F)(F)F)cn3)cc2c2c1COC2 (racemic)
9 |  |  |  |  |  | 74 nM | 68 nM |  |  |  |  |  |  |  | CC(=O)N1CCC(Nc2cc(C(=O)NC[C@H](O)CN3CCc4ccccc4C3)ncn2)CC1 [PEMRAMETOSTAT]
10 | 78 µL/min/mg | 50 µL/min/mg | 1.6 L/kg | 6.67 mL/min/kg | < 0.1 nM | 233 nM | 4810 nM | 13 | 61% | 0.05 | 130 mL/min/kg | < 20% | < 20% | 2.7 h | Nc1nc2ccc(C(=O)N3CCOC[C@@H]3c3ccc(C(F)(F)F)cc3)cc2c2c1COC2
11 | 51 µL/min/mg | 26 µL/min/mg | 1.8 L/kg | 13.3 mL/min/kg | < 0.1 nM | 64 nM | 2460 nM | 7 | 82% | 0.09 | 147 mL/min/kg | 80% | < 20% | 1.6 h | C[C@H]1OCc2c1c(N)nc1cnc(C(=O)N3CCOC[C@@H]3c3ccc(C(F)(F)F)cc3)cc21
12 | 121 µL/min/mg | 42 µL/min/mg |  |  | < 0.1 nM | 399 nM | 8270 nM | 8 |  |  |  | < 20% | < 20% |  | Nc1nc2ccc(C(=O)N3CCOC[C@@H]3c3ccc(Cl)cc3)cc2c2c1COC2
13 | 46 µL/min/mg | 14 µL/min/mg |  |  | 0.1 nM | 404 nM | 7950 nM | 29 |  |  |  | 11% | 31% |  | Cc1cc2cc(C(=O)N(Cc3ccc(C(F)(F)F)cn3)[C@H](C)c3ncccn3)ncc2nc1N
14 | 62 µL/min/mg | < 14 µL/min/mg |  |  | 0.6 nM | 482 nM | 743 nM | 15 |  |  |  | 17% | 21% |  | C[C@H](c1ncccn1)N(Cc1ccc(C(F)(F)F)cn1)C(=O)c1ccc2nc(N)ccc2c1
15 | 563 µL/min/mg | 274 µL/min/mg |  |  | < 0.1 nM | 14 nM | 129 nM | 85 |  |  |  | 73% | 8% |  | C[C@H](c1ncccn1)N(Cc1ccc(C(F)(F)F)cn1)C(=O)c1ccc2nc(N)c3c(c2c1)CCC3
16 | 64 µL/min/mg | 49 µL/min/mg |  |  | 1.1 nM | 4600 nM | > 50000 nM | 7 |  |  |  | < 20% | < 20% |  | C[C@@H]1OCc2c1c(N)nc1cnc(C(=O)N3CCOC[C@@H]3c3ccc(C(F)(F)F)cc3)cc21
17 | 19 µL/min/mg | 14 µL/min/mg | 0.9 L/kg | 8.33 mL/min/kg | 0.1 nM | 426 nM | 8790 nM | 23 | 64% | 0.21 | 40 mL/min/kg | < 20% | < 20% | 2.2 h | CN(Cc1ccc(C(F)(F)F)cn1)C(=O)c1ccc2nc(N)c3c(c2c1)COC3
18 | 16 µL/min/mg | 14 µL/min/mg | 1.2 L/kg | 6.67 mL/min/kg | < 0.1 nM | 395 nM | 9430 nM | 33 | 78% | 0.18 | 36.7 mL/min/kg | < 20% | < 20% | 2.1 h | Nc1nc2ccc(C(=O)N3CCOC[C@@H]3c3ccc(C(F)(F)F)cn3)cc2c2c1COC2
19 | 154 µL/min/mg | 67 µL/min/mg |  |  | 0.1 nM | 202 nM | 1860 nM | 61 |  |  |  | 9% | 4% |  | C[C@H](c1ncccn1)N(Cc1ccc(C(F)(F)F)cn1)C(=O)c1cc2c3c(c(N)nc2cn1)COC3
20 | 278 µL/min/mg | 129 µL/min/mg | 1.4 L/kg | 38.3 mL/min/kg | < 0.1 nM | 14 nM | 78 nM | 63 | 8% | 0.23 | 167 mL/min/kg | 13% | 4% | 0.9 h | C[C@H](c1ncccn1)N(Cc1ccc(C(F)(F)F)cn1)C(=O)c1ccc2nc(N)c3c(c2c1)COC3
21 | 72 µL/min/mg | 57 µL/min/mg |  |  | 184 nM | > 50000 nM | > 50000 nM |  |  |  |  | < 20% | < 20% |  | Nc1nc2ccc(C(=O)N3CCCC3c3ccc(C(F)(F)F)cn3)cc2c2c1COC2 (stereo unspecified)
22 | 148 µL/min/mg | 32 µL/min/mg |  |  |  | 431 nM | 6090 nM |  |  |  |  | 22% | 52% |  | Cc1cc2cc(C(=O)N(Cc3ccc(C(F)(F)F)cn3)CC(C)C)ccc2nc1N
23 | 17 µL/min/mg | 22 µL/min/mg |  |  | < 0.1 nM | 83 nM | 409 nM |  |  |  |  | 1% | < 1% |  | C[C@H](c1ncccn1)N(Cc1ccc(C(F)(F)F)cn1)C(=O)c1cnc2nc(N)c3c(c2c1)COC3
24 | 26 µL/min/mg | 17 µL/min/mg |  |  | 10.4 nM | 4440 nM | > 10000 nM | 69 |  |  |  | < 20% | < 20% |  | Nc1nc2ncc(C(=O)N3CCOCC3c3ccc(C(F)(F)F)cc3)cc2c2c1COC2 (stereo unspecified)
